Experimental data: ChEMBL document CHEMBL5625266, “Design, synthesis and biological evaluation of novel cyclic malonamide derivatives as selective RIPK1 inhibitors” (Bioorg Med Chem Lett, 2024)

What was measured:
U-937 = test: Inhibition of necroptosis in human U-937 cells; assay type: functional, cell-based
[1] = biological target: T1, Receptor-interacting serine/threonine-protein kinase 1 (Homo sapiens, UniProt Q13546); test: Inhibition of human RIPK1 assessed as inhibition constant by ADP-Glo Kinase assay
T1 sequence (Q13546 whole entry): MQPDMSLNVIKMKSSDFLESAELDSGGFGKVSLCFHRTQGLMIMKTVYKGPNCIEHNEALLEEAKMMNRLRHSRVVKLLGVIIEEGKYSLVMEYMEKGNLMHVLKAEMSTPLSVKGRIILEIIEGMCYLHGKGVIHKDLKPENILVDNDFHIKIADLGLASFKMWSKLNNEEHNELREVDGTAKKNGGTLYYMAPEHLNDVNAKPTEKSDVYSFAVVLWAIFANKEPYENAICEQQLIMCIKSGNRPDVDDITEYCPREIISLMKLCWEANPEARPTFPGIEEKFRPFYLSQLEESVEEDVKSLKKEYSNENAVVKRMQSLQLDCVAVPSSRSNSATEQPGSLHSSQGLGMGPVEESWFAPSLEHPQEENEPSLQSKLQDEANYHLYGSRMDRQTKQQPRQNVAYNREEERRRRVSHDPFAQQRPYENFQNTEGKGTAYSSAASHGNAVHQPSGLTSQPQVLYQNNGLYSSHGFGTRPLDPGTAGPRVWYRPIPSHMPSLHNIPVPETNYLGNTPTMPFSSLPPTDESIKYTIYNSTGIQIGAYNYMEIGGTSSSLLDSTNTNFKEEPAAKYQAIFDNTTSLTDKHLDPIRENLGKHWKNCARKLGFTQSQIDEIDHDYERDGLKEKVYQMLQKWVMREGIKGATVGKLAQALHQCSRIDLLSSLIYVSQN

[2] = biological target: Mitogen-activated protein kinase kinase kinase 9 (Homo sapiens) (UniProt P80192); test: Inhibition of MLK1 (unknown origin) at 10 uM relative to control
Sequence of Mitogen-activated protein kinase kinase kinase 9 (Homo sapiens) (P80192 whole entry, looked up): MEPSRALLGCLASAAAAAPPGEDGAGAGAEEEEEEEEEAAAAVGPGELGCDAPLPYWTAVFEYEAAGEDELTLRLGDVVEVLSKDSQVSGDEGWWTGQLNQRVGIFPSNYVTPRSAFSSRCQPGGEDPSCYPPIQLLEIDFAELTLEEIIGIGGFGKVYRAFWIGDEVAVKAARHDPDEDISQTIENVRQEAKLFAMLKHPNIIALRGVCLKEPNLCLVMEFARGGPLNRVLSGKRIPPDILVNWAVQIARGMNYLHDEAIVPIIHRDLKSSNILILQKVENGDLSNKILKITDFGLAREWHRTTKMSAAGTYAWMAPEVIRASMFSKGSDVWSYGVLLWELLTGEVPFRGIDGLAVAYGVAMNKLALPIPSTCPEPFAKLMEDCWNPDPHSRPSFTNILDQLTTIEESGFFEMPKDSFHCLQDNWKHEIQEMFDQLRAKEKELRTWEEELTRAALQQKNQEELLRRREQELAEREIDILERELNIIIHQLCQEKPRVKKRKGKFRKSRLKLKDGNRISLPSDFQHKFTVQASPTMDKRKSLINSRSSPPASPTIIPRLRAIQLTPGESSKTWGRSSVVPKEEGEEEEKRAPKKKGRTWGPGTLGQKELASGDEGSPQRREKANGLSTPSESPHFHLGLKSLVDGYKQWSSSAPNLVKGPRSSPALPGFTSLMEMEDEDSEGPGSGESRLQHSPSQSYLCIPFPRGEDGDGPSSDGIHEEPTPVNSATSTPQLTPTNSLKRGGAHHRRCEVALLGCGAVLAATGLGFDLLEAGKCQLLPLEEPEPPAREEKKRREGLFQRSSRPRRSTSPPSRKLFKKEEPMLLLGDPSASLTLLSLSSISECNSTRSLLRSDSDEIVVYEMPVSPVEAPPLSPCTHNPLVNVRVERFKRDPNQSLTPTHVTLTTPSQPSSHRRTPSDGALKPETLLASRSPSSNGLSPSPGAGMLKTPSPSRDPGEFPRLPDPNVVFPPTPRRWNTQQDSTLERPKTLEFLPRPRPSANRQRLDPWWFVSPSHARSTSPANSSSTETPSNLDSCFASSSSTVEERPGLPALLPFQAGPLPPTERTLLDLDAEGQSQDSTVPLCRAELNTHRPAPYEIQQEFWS

[3] = Stability of the compound in PBS at pH 7.4 measured after 24 hrs; assay type: physicochemical; settings: read-out: Stability
[4] = biological target: T2, Receptor-interacting serine/threonine-protein kinase 1 (Homo sapiens) (UniProt Q13546); test: Inhibition of RIPK1 (unknown origin) at 1 uM relative to control
T2 sequence (whole entry): T1 sequence (Q13546 whole entry)

| inhibition [2] [%] | remaining at 24 h [3] [%] | inhibition [4] [%] | SMILES | IC50 (U-937) [nM] | Ki [1] [nM] |
| --- | --- | --- | --- | --- | --- |
| – | – | – | CN1C(=O)C(C(=O)Nc2cn(Cc3ccccc3)cn2)CCc2ccncc21 (stereo not drawn) | 562 | 794 |
| – | – | – | CN1C(=O)C(C(=O)Nc2cn(Cc3ccccc3)cn2)CCc2ccccc21 (stereo not drawn) | – | 135 |
| 28 | – | – | COc1cc2c(cn1)N(C)C(=O)[C@H](C(=O)Nc1ncc(Cc3ccccc3)s1)CC2 | – | 1450 |
| – | 14 | 22 | CN1C(=O)C(C(=O)Nc2nc(Cc3ccccc3)n[nH]2)CCc2ccccc21 (stereo not drawn) | – | – |
| – | – | – | CN1C(=O)C(C(=O)Nc2ncn(Cc3ccccc3)n2)CCc2ccccc21 (stereo not drawn) | 61.7 | 43.7 |
| – | – | – | CN1C(=O)C(C(=O)Nc2ncc(Cc3ccccc3)o2)CCc2ccccc21 (stereo not drawn) | 891 | 200 |
| – | – | – | CN1C(=O)C(C(=O)Nc2cn(Cc3ccccc3)nn2)CCc2ccccc21 (stereo not drawn) | 79.4 | 58.9 |
| – | – | – | COc1cc2c(cn1)N(C)C(=O)C(C(=O)Nc1cn(Cc3ccccc3)cn1)CC2 (stereo not drawn) | 427 | 575 |
| – | – | – | CN1C(=O)C(C(=O)Nc2cn(Cc3c(F)cccc3F)cn2)CCc2ccccc21 (stereo not drawn) | 148 | 56.2 |
| – | – | – | COc1cc2c(cn1)N(C)C(=O)C(C(=O)Nc1ncc(Cc3ccccc3)s1)CC2 (racemic) | 57.5 | 52.5 |
| – | – | – | CN1C(=O)[C@@H](NC(=O)c2n[nH]c(Cc3ccccc3)n2)COc2ccccc21 [GSK2982772] | 5.89 | – |
| – | – | – | CN1C(=O)C(C(=O)Nc2ncc(Cc3ccccc3)s2)CCc2ccccc21 (stereo not drawn) | 11.2 | 1.91 |
| – | – | – | CN1C(=O)C(C(=O)Nc2cn(Cc3ccccc3)cn2)CCc2cccnc21 (stereo not drawn) | 1100 | 214 |
| – | – | – | COc1cc2c(cn1)N(C)C(=O)[C@@H](C(=O)Nc1ncc(Cc3ccccc3)s1)CC2 | 63.1 | 21.9 |
| – | – | – | CN1C(=O)C(C(=O)Nc2nnn(Cc3ccccc3)n2)CCc2ccccc21 (stereo not drawn) | 36.3 | 31.6 |
